Where two headings read alike, the source gives them in different places.
What was measured:
[1] = system: Class I HDAC1, 2, 3, and 8; class II b HDAC6 and 10; and class IV HDAC11; assay: In vitro HDAC activity assay; assay type: biochemical, human; conditions: in words, from IC50 calculation (Fig. S1A)
Protocol: In vitro HDAC inhibition assay
The half maximal HDAC-inhibitory concentrations (IC50) of resminostat w ere determined by
in vitro HDAC activity assays (Reaction Biology Corporation RBC, Pennsylvania, USA). For
the assay, resminostat was dissolved in DMSO and a dilution series with 10 concentrations
was used. The inhibitory activity of resminostat was tested on purified recombinant human
HDAC1-11. HDAC1-11 were produced using a baculovirus express ion system (human
HDAC1: cat# 50051, BPS, California, US; human HDAC2: cat# KDA-21-277, RBC,
Pennsylvania, USA; human HDAC3: cat# KDA -22-278, RBC, Pennsylvania, USA; human
HDAC4: cat# 50004 BPS, California, US; human HDAC5: cat# KDA-21-280, RBC, […]
activities of HDAC1 to 11 were assessed using acetylated AMC (7-amino-4-methycoumarin)-
labelled fluorogenic peptide substrates: fluorogenic peptide from p53 residues 379-382 (RHKK(Ac)AMC) for HDAC1, 2, 3, 6, 10, 11; fluorogenic HDAC Class IIa Substrate (Trifluoro acetyl Lysine, Ac-LGK(TFA)-AMC) for HDAC 4, 5, 7, 9; and fluorogenic peptide from p53 residues 379-382 (RHK(Ac)K(Ac)AMC) for HDAC8. […] In a second step, the deacetylated products were digested by the addition of developer for 1 h at 30°C to produce the fluorescent signal proportional to the amount of deacetylated substrates and the fluorescence was measured using an Envision plate reader at 355 nm (excitation) and 460 nm (emission). […]

[2] = system: COLO678; assay: Efficacy screening assay; assay type: cell-based; conditions: Homo sapiens, COLO-678, COLO678, colon, 72 h
Protocol: (§1) The experiment was performed by Oncolead GmbH & Co. KG (Karlsfeld , Germany), based on a standardized screening procedure . Cell lines were purchased directly from the ATCC, NCI and DSMZ cell line c ollections. Cells used for the study had undergone less than 20 passages. To ensure the absence of potential contamination and wrong assignment, all cell lines were tested using a whole genome assay (Agilent, USA). All cell lines were grown as recommended by the suppliers and with addition of 100 U/mL penicillin G and 100 µg/mL; streptomycin. Cell growth and treatments were performed in Nunclon D 96 -well plates (NUNC, Germany). The optimal seeding density for each cell line was determined to ensure exponential growth for the duration of the experiment. All cells growing without anti-cancer agents were sub-conﬂuent by the end of the treatment, as determined by visual inspection.
(§2) After an initial 24 h pre-growth period, the compounds were added. The vehicle concentration […]
(§3) was 0.1% DMSO. After incubation at 37°C for 72 h, the culture medium was aspirated, and the cells were precipitated by the addition of 10% trichloroacetic acid (Sigma-Aldrich, Missouri, US). After overnight incubation at 4°C, the plates were washed three times with deionized water. The precipitates were then stained with SRB (0.4% wt/v sulforhodamine B solution in 1% acetic acid, Sigma-Aldrich, Missouri, US). Afterwards, the plates were washed six times with 1% acetic acid to remove unbound stain. After drying the plates at room temperature, the bound SRB was solubilized with 10 mM Tris base and the optical density was measured at 520 nm using a Victor2 plate reader (Perkin Elmer, Germany). Blank OD values were subtracted from mean OD values for each concentration. The nonlinear curve ﬁtting and EC50 calculations were per formed using XLﬁt and algorithm “205” (ID Business […]
(§4) For comparison of EC50 values in Figure 1F, one-way ANOVA with multiple comparison testing (Tukey) was performed. Multiplicity adjusted p -values for the EC50 with sorafenib versus resminostat for each cell line and comparison between cell lines for sorafenib are presented (95% confidence interval for significance testing). For comparison of EC50 data in Figure 2B, one-way ANOVA with multiple comparison testing (Tukey) was performed. Multiplicity adjusted p-values with 95% confidence interval was applied. For the invasion assays in Figure 4, one-way ANOVA with multiple comparison testing (Tukey) was performed. Multiplicity adjusted p-values with 95% confidence interval was applied. The adjusted p-values comparing vehicle control without vs. with platelets and compound

[3] = system: HS729; assay: Efficacy screening assay; assay type: cell-based; conditions: HS729, muscle, 72 h
Protocol: as §1, §2, §3, §4

[4] = system: NCIH292; assay: Efficacy screening assay; assay type: cell-based; conditions: NCIH292, lung
Protocol: as §1, §2, §3, §4

[5] = system: PC3; assay: Efficacy screening assay; assay type: cell-based; conditions: Homo sapiens, PC-3, PC3, prostate, 72 h
Protocol: as §1, §2, §3, §4

[6] = system: RDES; assay: Efficacy screening assay; assay type: cell-based; conditions: 72 h, bone
Protocol: as §1, §2, §3, §4

[7] = system: SAOS2; assay: Efficacy screening assay; assay type: cell-based; conditions: SAOS2, bone
Protocol: as §1, §2, §3, §4

[8] = system: SKBR3; assay: Efficacy screening assay; assay type: cell-based; conditions: SKBR3, breast
Protocol: as §1, §2, §3, §4

[9] = system: SKMEL5; assay: Efficacy screening assay; assay type: cell-based; conditions: SKMEL5, skin
Protocol: as §1, §2, §3, §4

[10] = system: SNB75; assay: Efficacy screening assay; assay type: cell-based; conditions: SNB75, brain
Protocol: as §1, §2, §3, §4

[11] = system: T24; assay: Efficacy screening assay; assay type: cell-based; conditions: T24, bladder
Protocol: as §1, §2, §3, §4

[12] = log of EC50, negative, read-out: log(EC50) (converted)

For `CN(C)Cc1ccc(S(=O)(=O)n2ccc(/C=C/C(=O)NO)c2)cc1` [resminostat, Resminostat], the “inhibition of HDAC activity” value [1] was “inhibits the activity”, the EC50 [2, 12] was 7590 nM and the EC50 ([2]; read-out: EC50) was 7620 nM. For the same compound, the EC50 [3, 12] was 3390 nM, the EC50 ([3]; read-out: EC50) was 3350 nM and the EC50 ([4]; Homo sapiens, NCI-H292, 72 h, log of EC50, negative, read-out: log(EC50) (converted)) was 6310 nM. For the same compound, the EC50 ([4]; Homo sapiens, NCI-H292, 72 h, read-out: EC50) was 6270 nM, the EC50 ([4]; 72 h, read-out: EC50) was 6270 nM and the EC50 [5, 12] was 1700 nM. It also gave an EC50 ([5]; read-out: EC50) of 1690 nM, an EC50 ([6]; RD-ES, log of EC50, negative, read-out: log(EC50) (converted)) of 3550 nM and an EC50 ([6]; RD-ES, read-out: EC50) of 3570 nM. For the same compound, the EC50 ([6]; read-out: EC50) was 3570 nM, the EC50 ([7]; Homo sapiens, SAOS-2, 72 h, log of EC50, negative, read-out: log(EC50) (converted)) was 1910 nM and the EC50 ([7]; Homo sapiens, SAOS-2, 72 h, read-out: EC50) was 1890 nM. The EC50 ([7]; 72 h, read-out: EC50) was 1890 nM, the EC50 ([8]; Homo sapiens, SK-BR-3, 72 h, log of EC50, negative, read-out: log(EC50) (converted)) was 933 nM and the EC50 ([8]; Homo sapiens, SK-BR-3, 72 h, read-out: EC50) was 930 nM. The EC50 ([8]; 72 h, read-out: EC50) was 930 nM, the EC50 ([9]; Homo sapiens, SK-MEL-5, 72 h, log of EC50, negative, read-out: log(EC50) (converted)) was 1700 nM and the EC50 ([9]; Homo sapiens, SK-MEL-5, 72 h, read-out: EC50) was 1710 nM. The EC50 ([9]; 72 h, read-out: EC50) was 1710 nM, the EC50 ([10]; Homo sapiens, SNB-75, 72 h, log of EC50, negative, read-out: log(EC50) (converted)) was 6760 nM and the EC50 ([10]; Homo sapiens, SNB-75, 72 h, read-out: EC50) was 6750 nM. The EC50 ([10]; 72 h, read-out: EC50) was 6750 nM, the EC50 ([11]; Homo sapiens, T-24, 72 h, log of EC50, negative, read-out: log(EC50) (converted)) was 933 nM and the EC50 ([11]; Homo sapiens, T-24, 72 h, read-out: EC50) was 937 nM. It also gave an EC50 ([11]; 72 h, read-out: EC50) of 940 nM.
